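Values below derive from 48-hour exposures of cells grown in 96-well plates, with endpoints linearly interpolated between the two concentrations bracketing the appropriate inhibition level. The concentration for 50% growth inhibition is given as GI50.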 Active and inactive are the calls of the source. Cut-off read from the data, not from the text of the source: active = GI50 up to about 1.1 µM and inactive = higher.
Legend:
Assay in all cases: DTP human tumour cell line panel, 48 h
NCI-H460 = tested on: NCI-H460
HCT-116 = tested on: HCT-116
KM12 = tested on: KM12
HL-60 = tested on: HL-60
HOP-62 = tested on: HOP-62
MCF7 = tested on: MCF7
SNB-75 = tested on: SNB-75
M14 = tested on: M14
NCI-H23 = tested on: NCI-H23
HOP-92 = tested on: HOP-92
BT-549 = tested on: BT-549
CAKI-1 = tested on: CAKI-1
A498 = tested on: A498
OVCAR-8 = tested on: OVCAR-8
HCT-15 = tested on: HCT-15
SK-MEL-5 = tested on: SK-MEL-5
PC-3 = tested on: PC-3
OVCAR-5 = tested on: OVCAR-5
IGROV-1 = tested on: IGROV-1
SK-MEL-2 = tested on: SK-MEL-2
K562 = tested on: K562
U-251 = tested on: U-251
ACHN = tested on: ACHN
MOLT-4 = tested on: MOLT-4
EKVX = tested on: EKVX
RXF 393 = tested on: RXF 393
SF-268 = tested on: SF-268
SK-MEL-28 = tested on: SK-MEL-28
OVCAR-4 = tested on: OVCAR-4
SF-295 = tested on: SF-295
SK-OV-3 = tested on: SK-OV-3
NCI-H522 = tested on: NCI-H522
DU-145 = tested on: DU-145
T47D = tested on: T47D
786-0 = tested on: 786-0
SF-539 = tested on: SF-539
Malme-3M = tested on: Malme-3M
A549 = tested on: A549
UACC-257 = tested on: UACC-257
COLO 205 = tested on: COLO 205
SR = tested on: SR
MDA-N = tested on: MDA-N
SNB-19 = tested on: SNB-19
CCRF-CEM = tested on: CCRF-CEM
OVCAR-3 = tested on: OVCAR-3
MDA-MB-231 = tested on: MDA-MB-231
NCI/ADR-RES = tested on: NCI/ADR-RES
LOX IMVI = tested on: LOX IMVI
RPMI-8226 = tested on: RPMI-8226
SW-620 = tested on: SW-620
UO-31 = tested on: UO-31
UACC-62 = tested on: UACC-62
TK-10 = tested on: TK-10
Hs-578T = tested on: Hs-578T
NCI-H226 = tested on: NCI-H226
HT-29 = tested on: HT-29
MDA-MB-435 = tested on: MDA-MB-435
SN12C = tested on: SN12C
HCC 2998 = tested on: HCC 2998

CC1CC[C@@]2(OC1)OC1C[C@H]3[C@@H]4CC[C@H]5CC(OC6OC(CO)C(O)C(OC7OC(CO)C(OC8OC(CO)C(O)C(OC9OC(CO)C(O)C(O)C9O)C8OC8OC(CO)C(O)C(O)C8O)C(O)C7O)C6O)[C@H](O)CC5(C)[C@H]4CCC3(C)C1[C@@H]2C (stereo partly drawn)
GI50 (NCI-H460): 7060 nM (inactive)
GI50 (HCT-116): 5140 nM (inactive)
GI50 (KM12): 4790 nM (inactive)
GI50 (HL-60): 2570 nM (inactive)
GI50 (HOP-62): 2280 nM (inactive)
GI50 (MCF7): 1660 nM (inactive)
GI50 (SNB-75): 3980 nM (inactive)
GI50 (M14): 9040 nM (inactive)
GI50 (NCI-H23): 5310 nM (inactive)
GI50 (HOP-92): 4880 nM (inactive)
GI50 (BT-549): 4370 nM (inactive)
GI50 (CAKI-1): 4110 nM (inactive)
GI50 (A498): 1060 nM (active)
GI50 (OVCAR-8): 1700 nM (inactive)
GI50 (HCT-15): 9480 nM
GI50 (SK-MEL-5): 6950 nM (inactive)
GI50 (PC-3): 1290 nM (inactive)
GI50 (OVCAR-5): 5330 nM (inactive)
GI50 (IGROV-1): 1440 nM (inactive)
GI50 (SK-MEL-2): 3270 nM (inactive)
GI50 (K562): 3370 nM (inactive)
GI50 (U-251): 2700 nM (inactive)
GI50 (ACHN): 1900 nM (inactive)
GI50 (MOLT-4): 5180 nM (inactive)
GI50 (EKVX): 4150 nM (inactive)
GI50 (RXF 393): 1340 nM (inactive)
GI50 (SF-268): 5000 nM (inactive)
GI50 (SK-MEL-28): 7450 nM (inactive)
GI50 (OVCAR-4): 2400 nM (inactive)
GI50 (SF-295): 2990 nM (inactive)
GI50 (SK-OV-3): 6950 nM (inactive)
GI50 (NCI-H522): 1660 nM (inactive)
GI50 (DU-145): 5470 nM (inactive)
GI50 (T47D): 1370 nM (inactive)
GI50 (786-0): 1880 nM (inactive)
GI50 (SF-539): 1870 nM (inactive)
GI50 (Malme-3M): 8180 nM (inactive)
GI50 (A549): 9400 nM (inactive)
GI50 (UACC-257): 8750 nM (inactive)
GI50 (COLO 205): 1950 nM (inactive)
GI50 (SR): 1110 nM (active)
GI50 (MDA-N): 6590 nM (inactive)
GI50 (SNB-19): 2200 nM (inactive)
GI50 (CCRF-CEM): 2080 nM (inactive)
GI50 (OVCAR-3): 900 nM (active)
GI50 (MDA-MB-231): 1310 nM (inactive)
GI50 (NCI/ADR-RES): 4720 nM (inactive)
GI50 (LOX IMVI): 2290 nM (inactive)
GI50 (RPMI-8226): 2550 nM (inactive)
GI50 (SW-620): 2220 nM (inactive)
GI50 (UO-31): 2000 nM (inactive)
GI50 (UACC-62): 8690 nM (inactive)
GI50 (TK-10): 5570 nM (inactive)
GI50 (Hs-578T): 1840 nM (inactive)
GI50 (NCI-H226): 6530 nM (inactive)
GI50 (HT-29): 3520 nM (inactive)
GI50 (MDA-MB-435): 6590 nM (inactive)
GI50 (SN12C): 2490 nM (inactive)
GI50 (HCC 2998): 1430 nM (inactive)

CCc1nc(N)nc(N)c1-c1ccc(NCCc2ccccc2)c([N+](=O)[O-])c1
GI50 (NCI-H460): 68.7 nM (active)
GI50 (HCT-116): 64.9 nM (active)
GI50 (KM12): 1330 nM (inactive)
GI50 (HL-60): 186 nM (active)
GI50 (HOP-62): 1640 nM (inactive)
GI50 (MCF7): 1130 nM (inactive)
GI50 (SNB-75): 3560 nM (inactive)
GI50 (M14): 276 nM (active)
GI50 (NCI-H23): 392 nM (active)
GI50 (HOP-92): 2210 nM (inactive)
GI50 (BT-549): 4620 nM (inactive)
GI50 (CAKI-1): 390 nM (active)
GI50 (A498): 3050 nM (inactive)
GI50 (OVCAR-8): 394 nM (active)
GI50 (HCT-15): 108 nM
GI50 (SK-MEL-5): 486 nM (active)
GI50 (PC-3): 272 nM (active)
GI50 (OVCAR-5): 17200 nM (inactive)
GI50 (IGROV-1): 394 nM (active)
GI50 (SK-MEL-2): 8710 nM (inactive)
GI50 (K562): 32.5 nM (active)
GI50 (U-251): 364 nM (active)
GI50 (ACHN): 353 nM (active)
GI50 (MOLT-4): 491 nM (active)
GI50 (EKVX): 3340 nM (inactive)
GI50 (RXF 393): 3550 nM (inactive)
GI50 (SF-268): 527 nM (active)
GI50 (SK-MEL-28): 2740 nM (inactive)
GI50 (OVCAR-4): 3240 nM (inactive)
GI50 (SF-295): 317 nM (active)
GI50 (SK-OV-3): 16500 nM (inactive)
GI50 (NCI-H522): 560 nM (active)
GI50 (DU-145): 1140 nM (inactive)
GI50 (T47D): 4510 nM (inactive)
GI50 (786-0): 211 nM (active)
GI50 (SF-539): 741 nM (active)
GI50 (Malme-3M): 2380 nM (inactive)
GI50 (A549): 86.1 nM (active)
GI50 (UACC-257): 1770 nM (inactive)
GI50 (COLO 205): 1110 nM (active)
GI50 (SR): 215 nM (active)
GI50 (MDA-N): 195 nM (active)
GI50 (SNB-19): 2210 nM (inactive)
GI50 (CCRF-CEM): 297 nM (active)
GI50 (OVCAR-3): 1440 nM (inactive)
GI50 (MDA-MB-231): 8650 nM (inactive)
GI50 (NCI/ADR-RES): 716 nM (active)
GI50 (LOX IMVI): 199 nM (active)
GI50 (RPMI-8226): 1110 nM (active)
GI50 (SW-620): 163 nM (active)
GI50 (UO-31): 1860 nM (inactive)
GI50 (UACC-62): 162 nM (active)
GI50 (TK-10): 13300 nM (inactive)
GI50 (Hs-578T): 9660 nM (inactive)
GI50 (NCI-H226): 6050 nM (inactive)
GI50 (HT-29): 195 nM (active)
GI50 (MDA-MB-435): 389 nM (active)
GI50 (SN12C): 1340 nM (inactive)
GI50 (HCC 2998): 745 nM (active)

Source: ChEMBL document CHEMBL1201862, “PubChem BioAssay data set” (2004)
